Measured values taken from patent US9290777B2, “Putative cytokinin receptor and methods for use thereof” (NATIONAL UNIVERSITY OF SINGAPORE, priority 2007, dated 2016).

Legend:
purified TAP-HOG1 = target: T1, purified TAP-HOG1 (Arabidopsis thaliana, UniProt O23255); experiment: biochemical; type: binding; conditions: ITC, ligand injected into purified TAP-HOG1; KD = 1/KA; read-out: KD (dissociation constant)
T1 construct: Protein A (ProtA part of the TAP tag, TEV site between ProtA and CBP) (N, cleaved yes); made in house; host or cells: transgenic Arabidopsis thaliana harbouring 35S:TAP-HOG1
Description: Cytokinin binding affinity and thermodynamic analysis of the interaction between HOG1 and cytokinins was examined by ITC (MCSITC, Microcal, Northampton, USA). Three naturally occurring cytokinins (zeatin, benzyladenine and isopentenyl adenine) and thidiazuron (an urea-derived synthetic cytokinin) were used. Additionally, adenosine and NAD were used as control molecules to verify the binding specificity of HOG1 to cytokinins. Data were analyzed by MICROCAL ORIGIN version 2.9 using the best-fit, nonlinear least-squares method for one binding site. The binding stoichiometry (n), and association constant (KA) were calculated from the fitted curves. Subsequently, KD was calculated as 1/KA. Raw heat data were corrected to baseline drift obtained from injections of 0.1 μM purified AHP1 into the sample cell containing 2 μM purified TAP-HOG1. Binding isotherms were created by plotting the heat peak areas against the molar ratio of AHP1 added to HOG1.
Cytokinin binding affinity and thermodynamic analysis of the interaction between HOG1 and cytokinins was examined by ITC (MCSITC, Microcal, Northampton, USA). TAP-HOG1 fusion protein was purified using published protocols (Forler et al. supra) from transgenic Arabidopsis plants harboring the 35S:TAP-HOG1 construct. 0.01 μM benzyladenine (a naturally occurring cytokinin) and 0.1 μM of purified TAP-HOG1 protein were used for each ITC assay with 25 injections (each injection of 2 μl at […] intervals at 37° C.). Data were analyzed with MICROCAL ORIGIN version 2.9 using the best-fit, nonlinear least-squares method for one binding site. The binding stoichiometry (n), and association constant (KA) were calculated from the fitted curves. Subsequently, KD was calculated as 1/KA.

ARR1 and ARR2 = experiment: qRT-PCR of type-B ARRs after BA treatment; type: cell-based, Arabidopsis thaliana; conditions: transgenic lines
Description: For quantitative real-time PCR (qRT-PCR) analysis of cytokinin-inducible gene expression, seeds were germinated on MS medium with 3% (w/v) sucrose and grown for 6 days. Cytokinin treatment was carried out by incubating seedlings in the same MS+sucrose liquid medium (no agar) supplemented with 0, 0.01, 0.1, 1 or 5 μM [solubilized in 0.1% dimethylsulfoxide (DMSO) and diluted with the MS medium] for 5 min, 15 min, 30 min or 1 h. The control seedlings were incubated with DMSO (0.1%, the concentration used to dissolve cytokinins for the treatment) for the corresponding durations and used for expression analysis. Before RNA preparation, WT, OE and AS seedlings were pooled and stored in RNAlater solution (Qiagen, Valencia, Calif.). Total RNA was extracted using the Rneasy Plant Mini Kit (Qiagen). SYBRgreen RT-PCR reagents (Applied Biosystems) were used to synthesize double-stranded cDNA. The number of transcripts present in biological replicates each of WT, OE and AS seedlings, with or without BA and DMSO, was determined from three independent replicates. Fold induction of the transcripts was calculated according to the manufacturer's instructions (ABI Prism 7700 Sequence Detection System, User Bulletin #2).

T1 sequence (O23255 other isoform, or with tags, fused parts or gaps with the stated changes): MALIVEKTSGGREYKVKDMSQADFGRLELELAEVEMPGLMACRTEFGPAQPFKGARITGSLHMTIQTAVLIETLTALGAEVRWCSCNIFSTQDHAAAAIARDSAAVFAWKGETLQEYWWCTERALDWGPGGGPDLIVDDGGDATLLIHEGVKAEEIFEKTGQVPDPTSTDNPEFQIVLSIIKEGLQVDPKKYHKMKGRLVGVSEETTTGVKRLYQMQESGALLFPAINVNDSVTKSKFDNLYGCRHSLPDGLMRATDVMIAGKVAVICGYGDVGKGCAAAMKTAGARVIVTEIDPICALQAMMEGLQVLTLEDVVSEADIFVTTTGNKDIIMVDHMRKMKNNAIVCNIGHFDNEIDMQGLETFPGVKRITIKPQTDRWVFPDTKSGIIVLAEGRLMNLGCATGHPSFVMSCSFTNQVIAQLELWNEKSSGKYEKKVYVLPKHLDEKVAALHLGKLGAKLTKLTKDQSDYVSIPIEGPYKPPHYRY

Kd (purified TAP-HOG1): 20.6 nM
SMILES: c1ccc(CNc2ncnc3nc[nH]c23)cc1 [benzyladenine]
ARR1 and ARR2 transcript levels (ARR1 and ARR2): not significantly affected
